# From ChEMBL document CHEMBL1122021, “Angiotensin-converting enzyme inhibitors: importance of the amide carbonyl of mercaptoacyl amino acids for hydrogen bonding to the enzyme” (J Med Chem, 1982)
# Molecular target: T1, Angiotensin-converting enzyme (Oryctolagus cuniculus, UniProt P12822)
# T1 sequence (P12822 whole entry): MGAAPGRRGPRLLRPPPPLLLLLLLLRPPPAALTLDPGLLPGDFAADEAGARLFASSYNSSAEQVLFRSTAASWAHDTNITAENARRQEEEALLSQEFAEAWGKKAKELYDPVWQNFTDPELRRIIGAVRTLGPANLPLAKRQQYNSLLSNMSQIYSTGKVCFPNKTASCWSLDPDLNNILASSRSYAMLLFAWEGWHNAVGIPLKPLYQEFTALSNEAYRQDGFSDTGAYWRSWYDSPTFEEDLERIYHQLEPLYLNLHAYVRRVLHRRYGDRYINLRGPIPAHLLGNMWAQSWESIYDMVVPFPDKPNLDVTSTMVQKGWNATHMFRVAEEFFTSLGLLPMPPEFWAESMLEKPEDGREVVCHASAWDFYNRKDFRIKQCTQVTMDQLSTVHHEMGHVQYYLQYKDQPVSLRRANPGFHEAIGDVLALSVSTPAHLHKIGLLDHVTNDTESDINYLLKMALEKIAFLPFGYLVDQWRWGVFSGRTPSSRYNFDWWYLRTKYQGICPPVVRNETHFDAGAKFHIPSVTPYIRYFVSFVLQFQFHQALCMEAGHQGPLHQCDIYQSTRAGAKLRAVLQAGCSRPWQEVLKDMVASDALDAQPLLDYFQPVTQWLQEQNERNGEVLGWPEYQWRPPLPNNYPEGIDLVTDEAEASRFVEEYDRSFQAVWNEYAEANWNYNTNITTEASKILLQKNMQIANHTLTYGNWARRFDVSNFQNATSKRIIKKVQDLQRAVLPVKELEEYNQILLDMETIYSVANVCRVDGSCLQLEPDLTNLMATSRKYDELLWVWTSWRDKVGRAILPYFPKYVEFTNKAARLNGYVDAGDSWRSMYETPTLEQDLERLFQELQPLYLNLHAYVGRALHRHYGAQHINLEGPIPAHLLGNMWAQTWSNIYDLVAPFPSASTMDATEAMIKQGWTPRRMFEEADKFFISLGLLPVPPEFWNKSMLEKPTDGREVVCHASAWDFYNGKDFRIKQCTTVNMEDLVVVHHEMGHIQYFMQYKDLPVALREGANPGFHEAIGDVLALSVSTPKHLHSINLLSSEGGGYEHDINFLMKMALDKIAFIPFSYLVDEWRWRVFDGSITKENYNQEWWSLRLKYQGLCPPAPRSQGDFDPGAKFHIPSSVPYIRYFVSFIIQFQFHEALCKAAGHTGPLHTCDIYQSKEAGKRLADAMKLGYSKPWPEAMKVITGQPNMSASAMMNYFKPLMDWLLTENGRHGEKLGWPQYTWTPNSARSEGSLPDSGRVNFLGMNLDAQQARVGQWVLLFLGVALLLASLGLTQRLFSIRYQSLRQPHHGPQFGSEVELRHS
# Test: In vitro inhibitory activity against Angiotensin I converting enzyme in rabbit lung, using hippuryl-histidyl-leucine as substrate
# Conditions: not given
row,Structure (SMILES),IC50 [µM]
1,C[C@H](CS)C(=O)N1C(=O)CC[C@H]1C(=O)O,0.009
2,CN(C(=O)CCS)[C@@H](Cc1ccccc1)C(=O)O,31

# Same assay, conditions: read-out: I50
row,Structure (SMILES),IC50 [µM]
1,O=C(O)[C@@H]1CCCN1CCCS,240
2,O=C(O)[C@@H]1CC[C@H]1C(=O)CCS,37
3,O=C(O)[C@@H]1CCCN1C(=O)CCS,0.25
4,O=C(O)CN1CCCC(CS)C1=O (stereo unspecified),10
5,O=C(O)CCCCCS,1100
6,O=C(O)C/C=C/CCS,720
7,O=C(O)[C@@H]1CCCN1S(=O)(=O)CCS,11
8,O=C(CCS)O[C@@H](Cc1ccccc1)C(=O)O,0.7
9,CN(CC(=O)O)C(=O)CCS,3
10,O=C(O)[C@@H]1CCN1C(=O)CCS,1.7
11,O=C(O)[C@@H]1CCC(=O)N1CCCS,640
12,O=C(O)CCC(O)CCS (stereo unspecified),1200
13,O=C(O)CCC(=O)CCS,11
14,C[C@H](CS)C(=O)N1CCCC[C@H]1C(=O)O,0.13
15,C[C@@H](CS)C(=O)[C@@H]1CCCC[C@H]1C(=O)O,3.7
16,O=C(O)[C@@H]1CCC[C@H]1C(=O)CCS,2.4
17,O=C(O)CC(=O)NCCS,580
18,O=C(O)[C@@H]1CCCC[C@H]1C(=O)CCS,1.7
19,O=C(CCS)[C@H]1CC[C@H]1C(=O)O,34
20,C[C@H](CS)C(=O)[C@@H]1CCCC[C@H]1C(=O)O,0.74
21,O=C(O)[C@@H]1CCCCN1C(=O)CCS,0.46
22,O=C(CCS)N[C@@H](Cc1ccccc1)C(=O)O,0.85
23,O=C(CCS)[C@H]1CCCC[C@H]1C(=O)O,1.4
24,O=C(O)CNC(=O)CCS,2.8
